According to PMC10238420, “Altered Signaling and Desensitization Responses in PTH1R Mutants Associated with Eiken Syndrome” (Communications Biology, 2023):

Assays:
[1] = target: PTH1R-H223R (Homo sapiens, UniProt Q03431, H223R); experiment: Inverse agonist effect on basal cAMP, Gs22a cells; format: cell-based; conditions: 100 nM
Description: Minutes Minutes [PTHrP(7-36)] Log M
+Veh. +SW +Veh. +SW +Veh.+SW +Veh. +SW +SW
DMSO Dyngo+Veh. DMSO Dyngo+Veh. DMSO Dyngo+Veh. DMSO Dyngo+Veh. DMSO DMSO Dyngo+Veh.Dyngo+SW
Suppl ement al Fi gure 9.
Dat a f or PT H1R-H223R and
DMSO+PTHrP(7-36) Dyngo+Veh. Dyngo+PTHrP(7-36) DMSO+Veh. DMSO+SW106Dyngo+Veh. […] DMSO+SW106Dyngo+Veh. Dyngo+SW106 PTH1R-R485X DMSO+Veh. DMSO+SW106Dyngo+Veh. Dyngo+SW106 ##* DMSO+Veh. DMSO+SW106Dyngo+Veh. Dyngo+SW106 ##*** DMSO+Veh. DMSO+SW106Dyngo+Veh. Dyngo+SW106 PTH1R-H223R)

[2] = tested on: PTH1R-R485X; conditions: 100 nM
Description: Data are means ± SEM of three separate experiments, with triplicate wells in each.
Basal and ligand-stimulated cAMP signaling was assessed via the glosensor cAMP reporter in Gs22a cells transiently transfected to express either the WT or a mutant hPTH1R in white 96-well plates at room temperature. […] The plate was then placed into a PerkinElmer Envision plate reader and luminescence, as counts per second (cps), was measured at 2-min intervals for 15 min, during which time luciferin uptake occurred and luminescence reached a near steady-state baseline level. The plate was then removed from the plate reader, CIDB alone (vehicle) or containing a test ligand at varying concentrations was added, and luminescence was again measured at 2 min intervals for an additional 30–60 min.

[3] = tested on: PTH1R-R485X; conditions: PTH(1-34) 1 nM
Description: was added and moni t or i ng c ont i nued f or an addi t i onal 30 mi nut es .
shown in panel a. c) Cel l s wer e pr et r eat ed f or 15 mi nut es wi t h ei t her DMSO or Dy ngo4a ( 30 uM) , t hen
mi nut es ( agoni s t-was hout phas e) . T he AUCs of t he 90-mi nut e agoni s t-was hout r es pons es f or eac h
wi t h v ehi c l e dur i ng t he agoni s t-was hout phas e ( 100%) .

In the case of “LLHDLdWKSIQD L R R R FWL H H L IAEIH TAEY.N H 2 [dTrp^12-PTHrP(7-36), [Leu^11,dTrp^12,Trp^23,Tyr^36]-PTHrP(7–36)NH2]”, the “effect on basal cAMP, in words” value [1] is reported as “rapid decreases in the intracellular cAMP levels”, the “effect on basal cAMP, in words” value [2] is reported as “rapid decreases in the intracellular cAMP levels” and the “inhibition of subsequently added PTH(1-34) cAMP signaling, in words” value [3] is reported as “dose-dependent inhibition of cAMP signaling”.
